These results are taken from patent publication US5527782A, “5-halo-2,3'-O-cyclocytidines” (ACIC (Canada) Inc., priority 1990, dated 1996).

For one series, the system named is A375 melanoma cells. The experiment in a line: In vivo antitumor activity, A375 melanoma engrafted s.c. in SCID mice. To be noted: for Growth Delay: calculated from tumor volume curve; for Tumor Weight (% Inhibition): tumor weight at day 20. The method, then:
(§1) In vivo studies were conducted comparing the effectiveness of 5-bromo-2,3'-O-cyclocytidine hydrochloride (5-Br-cycloC) with one or more of 2,3'-O-cyclocytidine hydrochloride (cycloC), 1 -β-D-arabinofuranosylcytosine (Ara-C), Adfiamycin (ADR) and Dacarbazine (DTIC).
(§2) More specifically, the antitumor activity of these compounds were evaluated in two human tumor cell lines engrafted in severe combined immunodeficient (SCID) mice. The particular cell lines used in this Example were A549 (described above in Example 5) and melanoma A375 cells obtained from The American Type Culture Collection (ATCC) (hereinafter referred to as A375).

In series [1] the test system is human alveolar tumour cell line A549. The experiment in a line: [methyl-^3 H]thymidine uptake / cytotoxicity in human alveolar tumour cell line A549. The following applies: for IC50: Homo sapiens, 96 h, A549, four days incubation, then [methyl-^3 H]thymidine four hours, read-out: IC50 (drug concentrations producing 50% cytotoxicity); for cytotoxic effect on A549 cells compared to 2,3'-O-cyclocytidine hydrochloride: at relatively low concentrations. The class given is cell-based. The source says:
In this Example, there is described an in vitro comparison between 2,3'-O-cyclocytidine hydrochloride, 5-bromo-2,3'-O-cyclocytidine hydrochloride, and 5-iodo-2,3'-O-cyclocytidine hydrochloride. The specific in vitro test involved assessing the toxicity of the compounds in a particular cell line by conducting [methyl-^3 H]thymidine uptake experiments.
The particular cell line used in the Example was human alveolar tumour cell line A549 (hereinafter referred to as A549) obtained from The American Type Culture Collection (ATCC) as CCL 185 (lung carcinoma, human).
Cultures were inoculated at 1×10^5 cells/60 mm dish, incubated for four days in the presence of various concentrations (see FIGURE) of 2,3'-O-cyclocytidine hydrochloride (.largecircle.), 5-bromo-2,3'-O-cyclocytidine hydrochloride and 5-iodo-2,3'-O-cyclocytidine hydrochloride. Thereafter, the cells were incubated with a medium supplemented with [methyl-^3 H]thymidine (82 Cl/mmol; 5 μCl/ml) for four hours and lysed, and the amount of radioactivity incorporated into genomic DNA was measured. The IC50 values (drug concentrations producing 50% cytotoxicity) for each compound illustrated in the FIGURE are reported in Table 10. As will be apparent from […]

A further series deals with A549. The experiment in a line: In vivo antitumor activity, A549 engrafted s.c. in SCID mice. To be noted: for Growth Delay: calculated from tumor volume curve; for Tumor Weight (% Inhibition): tumor weight at day 20. Here is the method: as §1, §2
Series [2] in a line: MTD in non-tumor bearing SCID mice. To be noted: mouse, in vivo, ip, i.p. daily×7.
Where [3] appears, read: Experiment 1, 1000 mg/kg i.p. daily × 7.
[4] abbreviates: Experiment 1, 200 mg/kg i.p. daily × 7.
Setting [5] is: Experiment 2, 250 mg/kg i.p. daily × 7.
Setting [6] is: Experiment 2, 300 mg/kg i.p. × 1.
[7] abbreviates: Experiment 3, 250 mg/kg i.p. daily × 7.
[8] abbreviates: Experiment 3, 250 mg/kg i.p. every other day × 7.
Setting [9] is: Experiment 4, 250 mg/kg i.p. every other day × 7.
Setting [10] is: Experiment 1, 250 mg/kg i.p. daily × 7.
Where [11] appears, read: Experiment 1, 250 mg/kg i.p. every other day × 7.
Setting [12] is: Experiment 1, 60 mg/kg i.p. daily × 7.
The mark [13] stands for this setting: Experiment 2, 60 mg/kg i.p. daily × 7.
The mark [14] stands for this setting: Experiment 2, 60 mg/kg i.p. daily ×.
The mark [15] stands for this setting: Experiment 3, 120 mg/kg i.p. every other day × 7.
Where [16] appears, read: Experiment 4, 120 mg/kg i.p. every other day × 7.

Structures can show the parent of a compound that is named as a salt.

Regarding `N=c1ccn2c(n1)O[C@@H]1[C@@H](O)[C@H]2O[C@@H]1CO` [2,3'-O-Cyclocytidine hydrochloride, 2,3'-O-cyclocytidine hydrochloride, reference compound], in the series with A375 melanoma cells (setting [3]), the “Growth Delay” value is 2 days and the “Tumor Weight (% Inhibition)” value is on record as “+6%”. Moreover, in the series with A375 melanoma cells (in vivo, ip, 1000 mg/kg), the “Survival Rate (%)” value amounted to 100% and the “Weight Loss (% Decrease)” value is 0%. Besides, the IC50 in series [1] worked out at 50 µM.

`N=c1nc2n(cc1I)[C@@H]1O[C@H](CO)[C@H](O2)[C@H]1O` [5-Iodo-2,3'-O-cyclocytidine hydrochloride]: in series [1], the IC50 is 10 µM and the “cytotoxic effect on A549 cells compared to 2,3'-O-cyclocytidine hydrochloride” value is given as “significantly superior cytotoxic effect”.

Consider `N=c1nc2n(cc1Br)[C@@H]1O[C@H](CO)[C@H](O2)[C@H]1O` [5-bromo-2,3'-O-cyclocytidine hydrochloride], for which the “Growth Delay” value in the series with A375 melanoma cells (setting [4]) was 10 days; in the series on A375 melanoma cells (setting [5]) it was 10 days; in the series on A375 melanoma cells (setting [6]), 11 days; in the series with A375 melanoma cells (setting [7]) it was 9 days; in the series on A375 melanoma cells (setting [8]), 12 days; in the series with A375 melanoma cells (setting [9]) it was 11 days. Further, the “Growth Delay” value in the series with A549 (setting [10]) was 10 days; in the series on A549 (setting [11]), 6 days. The “Tumor Weight (% Inhibition)” value with A375 melanoma cells (setting [4]) was 26%; in the series on A375 melanoma cells (setting [5]) it was 43%; in the series with A375 melanoma cells (setting [6]), 45%; in the series with A375 melanoma cells (setting [7]), 38%; in the series with A375 melanoma cells (setting [8]), 43%; in the series on A375 melanoma cells (setting [9]), 48%. In addition, the “Tumor Weight (% Inhibition)” value in the series with A549 (setting [10]) was determined as 43%; in the series on A549 (setting [11]), 12%. Further, in the series on A375 melanoma cells (in vivo), the “weight loss during therapy” value is on record as “no weight loss (or in two instances an actual weight gain)”. For the same molecule, the “Survival Rate (%)” value in the series with A375 melanoma cells (in vivo, ip, 200 mg/kg) was 100%; with A375 melanoma cells (in vivo, ip, 300 mg/kg) it was 33.3%; in the series on A549 (in vivo, ip, 250 mg/kg), 100%. Besides, the “Weight Loss (% Decrease)” value is on record as 0% with A375 melanoma cells (in vivo, ip, 200 mg/kg) and 0% with A375 melanoma cells (in vivo, ip, 300 mg/kg). In the series with A375 melanoma cells (treatment of A375, Table 11), the “effectiveness in effecting tumor growth delay” value was “as effective in effecting tumor growth delay as 1-β-D-arabinofuranosylcytosine and dacarbazine, and much more effective than 2,3'-O-cyclocytidine hydrochloride”. Also, the “decrease of tumor growth” value in the series on A549 (250 mg/kg daily×7, over a 20 day period) was “significantly decreased tumor growth”. In addition, the “survival rate” value in the series with A549 (in vivo) is given as 100%. Also, the “weight loss” value with A549 (in vivo) is “no weight loss (or an actual weight in one stance)”. This molecule gave an MTD in series [2] of 250 mg/kg. Besides, the IC50 in series [1] worked out at 40 µM. Besides, the “cytotoxic effect on A549 cells compared to 2,3'-O-cyclocytidine hydrochloride” value in series [1] was “significantly superior cytotoxic effect”.

For `COc1cccc2c1C(=O)c1c(O)c3c(c(O)c1C2=O)C[C@@](O)(C(=O)CO)C[C@@H]3O[C@H]1C[C@H](N)[C@H](O)[C@H](C)O1` [ADR, Adfiamycin], in the series with A549 (A549, Table 12), the “survival rate” value is recorded as ≤ 33.3%. Further, in the series with A549 (Experiment 1, 7 mg/kg i.p. × 1), the “Survival Rate (%)” value was found to be 16.7%, the “Growth Delay” value was 5 days and the “Tumor Weight (% Inhibition)” value worked out at 6%. In the series on A549 (Experiment 2, 5 mg/kg i.p. × 1), the “Survival Rate (%)” value was determined as 16.7%, the “Growth Delay” value was 6 days and the “Tumor Weight (% Inhibition)” value was determined as 24%. The “weight loss” value in the series with A549 (in vivo) is given as “weight loss”. In addition, the “Weight Loss (% Decrease)” value in the series with A549 (in vivo, ip, 5 mg/kg) turned out to be 32%. For the same molecule, in the series on A549 (in vivo, ip, 7 mg/kg), the “Weight Loss (% Decrease)” value was found to be 16%.

On to `Nc1ccn([C@@H]2O[C@H](CO)[C@@H](O)[C@@H]2O)c(=O)n1` [Ara-C, 1 -β-D-arabinofuranosylcytosine], for which the “Survival Rate (%)” value in the series with A375 melanoma cells (setting [12]) came to 100%; in the series with A375 melanoma cells (setting [13]), 100%; in the series with A549 (setting [12]), 33.3%; with A549 (setting [14]), 33.3%. Further, the “Growth Delay” value in the series on A375 melanoma cells (setting [12]) was 10 days; in the series on A375 melanoma cells (setting [13]), 11 days; in the series with A549 (setting [12]), 7 days; in the series with A549 (setting [14]), 11 days. The “Tumor Weight (% Inhibition)” value was found to be 45% in the series with A375 melanoma cells (setting [12]), 39% in the series with A375 melanoma cells (setting [13]), 38% in the series with A549 (setting [12]) and 47% in the series on A549 (setting [14]). For the same molecule, the “survival rate” value in the series on A549 (A549, Table 12) is on record as ≤ 33.3%. Besides, the “weight loss” value in the series on A549 (in vivo) was “weight loss”.

`CN(C)/N=N/c1[nH]cnc1C(N)=O` [DTIC, Dacarbazine, reference compound]: in the series on A375 melanoma cells (setting [15]), the “Growth Delay” value was 12 days and the “Tumor Weight (% Inhibition)” value amounted to 53%. In the series on A375 melanoma cells (setting [16]), the “Growth Delay” value is 13 days and the “Tumor Weight (% Inhibition)” value is reported as 59%.
